The values below come from paper PMC10458458, “Characterization of Anticancer Effects of the Analogs of DJ4, a Novel Selective Inhibitor of ROCK and MRCK Kinases” (Pharmaceuticals, 2023).

The subject of one data set is CAKI-1. The experiment in a line: NCI-60 screen (SRB). It counts as cell-based, human. The following applies: CAKI-1 (Renal Cancer), 10 µM, 48 h; negative = cell death vs time zero. From the text:
(§1) The selected active compounds were screened at NCI, as a part of In Vitro Cell Line Screening Project (IVCLSP), for their effect on cell growth in 60 different cancer cell lines. The 60 human cancer cell line panel included leukemia, melanoma, non-small cell lung cancer, colon, central nervous system (CNS), ovarian, renal, prostate, and breast cancer cell lines. The detailed procedure and applications of NCI-60 cell line screening can be found at https://dtp.cancer.gov/discovery_development/nci-60/default.htm (accessed on 9 January 2023). Briefly, cells were plated in 96-well plates and incubated for 24 h. One set of cells was fixed with trichloroacetic acid at time 0 h (Tz), and SRB (sulphorhodamine B) assays were performed to quantify the cells. The remaining set of cells were treated with 10 µM single concentration of each compound and incubated for 48 h (Te) after which the cells were fixed, and the SRB assays were performed. Data are presented as percent growth relative to the control as 100% according to the following calculations:
(§2) When Te >/= Tz. Growth(%)=Te−Tz/C−Tz∗100 and when Te < Tz. (1) Growth(%)=Te−Tz/Tz∗100
(§3) Values between 0–100 indicate cell growth, zero (0) indicates no cell growth, values < 0 indicate cell death.

In the next data set the test system is HCT-116. The experiment in a line: NCI-60 screen (SRB). Format: cell-based, human. The following applies: HCT-116 (Colon Cancer), 10 µM, 48 h; negative = cell death vs time zero.
Text: as §1, §2, §3

Another data set deals with MDA-MB-468. The experiment in a line: NCI-60 screen (SRB). As to conditions: MDA-MB-468 (Breast Cancer), 10 µM, 48 h; negative = cell death vs time zero. Format: cell-based, human.
Text: as §1, §2, §3

A further data set deals with SK-MEL-2. Briefly: NCI-60 screen (SRB). As to conditions: SK-MEL-2 (Melanoma), 10 µM, 48 h; negative = cell death vs time zero. Format: cell-based, human.
Text: as §1, §2, §3

The test system of another data set is UACC-62. The experiment in a line: NCI-60 screen (SRB). Format: cell-based, human. The following applies: UACC-62 (Melanoma), 10 µM, 48 h; negative = cell death vs time zero.
Text: as §1, §2, §3

Data set [1] in a line: Solubility in 100% DMSO (observation). Format: physicochemical.
The target in another data set is ROCK2 (Homo sapiens, UniProt O75116). Briefly: Cell-free biochemical kinase activity assay (pMYPT1 immunoblot). Also on record: purchased Invitrogen. Here is the method: Cell-free biochemical kinase inhibitory activity of these compounds was evaluated at 1 µM concentration using the previously described ROCK1 kinase activity assay. Among the 27 analogs, we identified four analogs (DJ110, DJ-Allyl, DJE4, and DJ-Morpholine) with >50% inhibition of MYPT1 phosphorylation (Supplementary Figure S1). These four compounds were selected for further evaluation at 1 µM and 0.1 µM for their in vitro inhibitory activity against ROCK1, ROCK2, MRCKα, and MRCKβ kinases.
Cell-free biochemical kinase activity was assayed using published procedures. Briefly, recombinant ROCK1 (9.48 nM) or ROCK2 (8.26 nM; Invitrogen, Waltham, MA, USA) was incubated in the presence of 0.1 and 1 µM concentrations of DJ4 analogs or DMSO in ROCK-assay buffer at room temperature (RT) for 10 min. MRCKα and MRCKβ (2 ng/µL; Invitrogen) assays were performed in the assay buffer recommended by the manufacturer. Recombinant MYPT1 (20 ng/µL; Millipore) and ATP (5 µM) were added to initiate the reaction. The reaction was incubated at 30 °C for 20 min. Western blot analysis of these samples for phosphorylation of MYPT1 was performed as per the method mentioned in our earlier publication. Briefly, an equal amount of sample was loaded on Bis-Tris gel (Novex, Life Technologies, Carlsbad, CA, USA), proteins were electrophoresed and transferred to PVDF membranes. The blots were probed with anti-pMYPT1 (Thr696) or anti-MYPT1 (Millipore) antibodies.

Structures are written as SMILES.

Chain of ROCK2 (O75116 whole entry): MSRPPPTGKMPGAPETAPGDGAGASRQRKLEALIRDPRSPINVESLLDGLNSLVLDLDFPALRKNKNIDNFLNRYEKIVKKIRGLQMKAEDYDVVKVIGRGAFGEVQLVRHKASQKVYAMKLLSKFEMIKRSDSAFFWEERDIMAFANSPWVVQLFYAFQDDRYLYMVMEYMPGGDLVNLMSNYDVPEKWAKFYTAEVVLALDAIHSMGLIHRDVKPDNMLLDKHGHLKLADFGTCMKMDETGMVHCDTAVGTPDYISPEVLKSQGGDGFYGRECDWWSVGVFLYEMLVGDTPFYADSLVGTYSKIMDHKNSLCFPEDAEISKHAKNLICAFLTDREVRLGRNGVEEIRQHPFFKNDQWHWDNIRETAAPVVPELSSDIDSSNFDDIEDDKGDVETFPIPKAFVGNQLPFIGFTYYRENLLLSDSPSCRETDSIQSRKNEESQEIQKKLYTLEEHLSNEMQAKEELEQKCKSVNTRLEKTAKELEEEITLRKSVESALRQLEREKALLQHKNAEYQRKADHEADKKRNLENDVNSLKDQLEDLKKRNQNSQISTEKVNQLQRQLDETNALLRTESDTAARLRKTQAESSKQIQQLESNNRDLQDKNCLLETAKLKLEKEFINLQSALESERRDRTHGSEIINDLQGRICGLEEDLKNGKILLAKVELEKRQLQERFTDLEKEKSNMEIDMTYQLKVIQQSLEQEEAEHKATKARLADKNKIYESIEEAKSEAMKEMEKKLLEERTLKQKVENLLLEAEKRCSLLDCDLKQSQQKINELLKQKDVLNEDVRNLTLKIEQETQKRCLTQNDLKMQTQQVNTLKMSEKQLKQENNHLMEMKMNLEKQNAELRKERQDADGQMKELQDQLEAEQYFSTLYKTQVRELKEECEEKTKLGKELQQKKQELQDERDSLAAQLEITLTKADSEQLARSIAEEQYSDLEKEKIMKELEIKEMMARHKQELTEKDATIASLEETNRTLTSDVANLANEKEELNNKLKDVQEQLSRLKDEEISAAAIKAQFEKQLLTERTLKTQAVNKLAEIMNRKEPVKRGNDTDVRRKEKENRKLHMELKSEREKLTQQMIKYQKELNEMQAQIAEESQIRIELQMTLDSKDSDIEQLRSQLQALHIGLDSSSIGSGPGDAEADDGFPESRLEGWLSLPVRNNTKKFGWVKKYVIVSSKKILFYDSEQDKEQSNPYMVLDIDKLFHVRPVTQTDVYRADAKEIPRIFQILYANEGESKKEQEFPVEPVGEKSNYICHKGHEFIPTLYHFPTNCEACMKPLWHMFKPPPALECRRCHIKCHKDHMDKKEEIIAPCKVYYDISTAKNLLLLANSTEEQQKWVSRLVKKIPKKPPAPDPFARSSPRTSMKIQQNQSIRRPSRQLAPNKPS

On to `Cl.O=C1NC(=NCCc2ccccc2)SC1=Cc1c[nH]c2ncccc12` (mixture of isomers) [DJ4-HCl], for which the percent cell growth with CAKI-1 is recorded as 54.8%; in the data set with HCT-116, 5.8%; in the data set with MDA-MB-468, −2.1%; in the data set with SK-MEL-2 it was −4.6%; in the data set on UACC-62, −1.3%.
`O=C1N/C(=N\CCc2ccccc2)S/C1=C/c1c[nH]c2ncccc12` [DJ4]: the “solubility in 100% DMSO” value in data set [1] is “much better solubility”. Moreover, the percent cell growth with CAKI-1 is reported as 37.4%; with HCT-116 it was 9.7%; in the data set on MDA-MB-468 it was −14.5%; in the data set with SK-MEL-2, 28.8%; in the data set on UACC-62 it was −1.4%. In addition, the “inhibition of kinase activity (qualitative immunoblot)” value (from here on “inhibition of kinase activity”) on ROCK2 (ROCK2, 0.1 µM) was “ineffective”; against ROCK2 (ROCK2, 1 µM), “significantly inhibit”.
For `O=C1N/C(=N\Cc2ccccc2)S/C1=C/c1c[nH]c2ncccc12` [DJ110], in data set [1], the “solubility in 100% DMSO” value is on record as “poor solubility”. The “inhibition of kinase activity” value at ROCK2 (ROCK2, 0.1 µM) is “significantly inhibited”; at ROCK2 (ROCK2, 1 µM) it was “significantly inhibit”.
Regarding `C=CC/N=C1\NC(=O)/C(=C\c2c[nH]c3ncccc23)S1` [DJ-Allyl], in data set [1], the “solubility in 100% DMSO” value is given as “much better solubility”. Besides, the percent cell growth is given as 30.2% in the data set with CAKI-1; 6.3% in the data set on HCT-116; 1.0% in the data set with MDA-MB-468; −8.4% with SK-MEL-2; 9.8% with UACC-62. Moreover, the “inhibition of kinase activity” value at ROCK2 (ROCK2, 1 µM) is “almost completely inhibited”.
With `O=C1N/C(=N\CCN2CCOCC2)S/C1=C/c1c[nH]c2ncccc12` [DJ-Morpholine], in data set [1], the “solubility in 100% DMSO” value is reported as “poor solubility”. In addition, the “inhibition of kinase activity” value against ROCK2 (ROCK2, 1 µM) is reported as “almost completely inhibited”.
`CC/N=C1\NC(=O)/C(=C\c2c[nH]c3ncccc23)S1` [DJE4]: in data set [1], the “solubility in 100% DMSO” value is “much better solubility”. In addition, the percent cell growth with CAKI-1 is on record as 20.6%; with HCT-116, 4.0%; in the data set with MDA-MB-468, −34.7%; in the data set with SK-MEL-2 it was −48.7%; in the data set on UACC-62, −16.0%. Further, on ROCK2 (ROCK2, 1 µM), the “inhibition of kinase activity” value was “almost completely inhibited”.
